Results as given in patent publication US20030073731A1, “Compositions and methods of the use thereof achiral analogues of CC-1065 and the duocarmycins” (priority 2000, published 2003).
Like-named read-outs stand apart in the source and are kept apart here.

Tests used:
[1] = test system: CCRF-CEM; experiment: cells; details: Homo sapiens
[2] = test system: SF-295; experiment: cells; details: Homo sapiens
[3] = test system: NCI-H522; experiment: cells; details: Homo sapiens
[4] = test system: CAKI-1; experiment: cells; details: Homo sapiens
[5] = test system: UACC-257; experiment: cells; details: Homo sapiens
[6] = test system: HS 578T; experiment: cells; details: Homo sapiens
[7] = test system: SR; experiment: cells; type: cell-based, human
[8] = test system: BT-549; experiment: cells; details: Homo sapiens
[9] = test system: HCT-116; experiment: cells; details: Homo sapiens
[10] = test system: SK-OV-3; experiment: cells; details: Homo sapiens
[11] = test system: 786-0; experiment: cells; details: Homo sapiens
[12] = test system: MDA-N; experiment: cells; details: Homo sapiens
[13] = test system: MCF7/ADR-RES; experiment: cells; type: cell-based, human
[14] = test system: TK-10; experiment: cells; details: Homo sapiens
[15] = test system: U251; experiment: cells; details: Homo sapiens
[16] = test system: SK-MEL-2; experiment: cells; details: Homo sapiens
[17] = test system: PC3 (human prostate cancer cells); experiment: cells; type: cell-based
Method: Cells were seeded in 96-well microtiter plates at densities of 1000 cells/well. The optimal seeding density was determined to ensure exponential growth in control wells throughout the experimental period and to obtain a linear relationship between absorbance at 492 nm and cell number when analyzed by the sulforhodamine B (SRB) assay (43). 24 hours after seeding the cells were incubated for 1 hour or continuously for 3 days with the drugs (concentration range 0.01 to 500 pM). The cells were washed once and then incubated in drug free medium for 6 days. At the end of the incubation cell growth was determined by the SRB assay, which quantifies viable cells by measuring their total cellular protein content. […] Similar studies were conducted against the growth of PC3 (human prostate cancer cells) and MCF-7 (human breast cancer cells).

[18] = test system: IGROV1; experiment: cells; type: cell-based, human
[19] = test system: K-562; experiment: cells; details: Homo sapiens
[20] = test system: HL-60 (TB); experiment: NCI in-vitro cytotoxicity screen, Leukemia panel; type: cell-based, human
Method: (§1) The compounds of this invention were also tested against the panel of 60 human cancer cell lines at the National Cancer Institute, Bethesda, Md. […] The cytotoxicity studies were conducted using a 48 hour exposure, and measuring the optical density of sulforhodamine B-derived color.

[21] = test system: SNB-75; experiment: cells; details: Homo sapiens
[22] = test system: PC-3; experiment: cells; details: Homo sapiens
[23] = test system: HOP-92
[24] = test system: MOLT-4; experiment: cells; details: Homo sapiens
[25] = test system: RXF 393; experiment: NCI in-vitro cytotoxicity screen, Renal Cancer panel; type: cell-based; details: Homo sapiens
Method: as §1

[26] = test system: OVCAR-5; type: cell-based, human
[27] = test system: K-562
[28] = test system: DU-145; type: cell-based, human
[29] = test system: EKVX
[30] = test system: NCI-H332M
[31] = test system: RPMI-8226
[32] = test system: OVCAR-8
[33] = test system: SNB-19
[34] = test system: ACHN
[35] = test system: UACC-62
[36] = test system: U251
[37] = test system: BT-549
[38] = test system: UACC-257

**Q.** With `COC(=O)c1[nH]c2c(O)cc(NC(=O)c3cc4cc(OC)c(OC)c(OC)c4[nH]3)c(CCCl)c2c1C(=O)OC` [Compound 22, Dimethyl 4-(2-chloroethyl)-7-hydroxy-5-(5,6,7-trimethoxyindole-2-carboxamido)indole-2,3-dicarboxylate] as the molecule, how does the GI50 [1] read?
**A.** Its GI50 is 31.8 nM.

**Q.** What about the CC50 ([1]; read-out: LC50) of the same molecule?
**A.** Its CC50 is greater than 50000 nM.

**Q.** And the GI50 ([2]; SF-295)?
**A.** The GI50 was 126 nM.

**Q.** And the CC50 ([2]; SF-295, read-out: LC50)?
**A.** Its CC50 is greater than 50000 nM.

**Q.** What about the GI50 ([3]; NCI-H522) of the same molecule?
**A.** Its GI50 is 57.7 nM.

**Q.** What about the CC50 ([3]; NCI-H522, read-out: LC50) of the same molecule?
**A.** Its CC50 is 373 nM.

**Q.** And the GI50 ([4]; CAKI-1)?
**A.** The GI50 was 147 nM.

**Q.** What about the CC50 ([4]; CAKI-1, read-out: LC50) of the same molecule?
**A.** The CC50 was greater than 50000 nM.

**Q.** And the GI50 ([5]; UACC-257)?
**A.** Its GI50 is 170 nM.

**Q.** What about the CC50 ([5]; UACC-257, read-out: LC50) of the same molecule?
**A.** The CC50 was greater than 50000 nM.

**Q.** And the GI50 [6]?
**A.** The GI50 was 138 nM.

**Q.** And the CC50 ([6]; read-out: LC50)?
**A.** Its CC50 is 946 nM.

**Q.** What about the GI50 ([7]; Homo sapiens, SR, SB) of the same molecule?
**A.** Its GI50 is 5.6 nM.

**Q.** What about the GI50 ([8]; BT-549) of the same molecule?
**A.** The GI50 was 329 nM.

**Q.** And the CC50 ([8]; BT-549, read-out: LC50)?
**A.** The CC50 was greater than 50000 nM.

**Q.** What about the GI50 ([9]; HCT-116) of the same molecule?
**A.** Its GI50 is 65.6 nM.

**Q.** And the CC50 ([9]; HCT-116, read-out: LC50)?
**A.** Its CC50 is 33200 nM.

**Q.** And the GI50 ([10]; SK-OV-3)?
**A.** The GI50 was 269 nM.

**Q.** And the CC50 ([10]; SK-OV-3, read-out: LC50)?
**A.** The CC50 was 44600 nM.

**Q.** What about the GI50 ([11]; 786-0) of the same molecule?
**A.** The GI50 was 123 nM.

**Q.** What about the CC50 ([11]; 786-0, read-out: LC50) of the same molecule?
**A.** Its CC50 is greater than 50000 nM.

**Q.** And the GI50 [12]?
**A.** The GI50 was 150 nM.

**Q.** And the CC50 ([12]; read-out: LC50)?
**A.** Its CC50 is greater than 50000 nM.

**Q.** What about the GI50 ([13]; Homo sapiens, NCI/ADR-RES) of the same molecule?
**A.** The GI50 was 137 nM.

**Q.** And the GI50 ([14]; TK-10)?
**A.** The GI50 was 272 nM.

**Q.** And the CC50 ([14]; TK-10, read-out: LC50)?
**A.** Its CC50 is greater than 50000 nM.

**Q.** And the GI50 ([15]; U-251)?
**A.** Its GI50 is 120 nM.

**Q.** What about the CC50 ([15]; U-251, read-out: LC50) of the same molecule?
**A.** Its CC50 is greater than 50000 nM.

**Q.** What about the GI50 ([16]; SK-MEL-2) of the same molecule?
**A.** The GI50 was 83.9 nM.

**Q.** And the CC50 ([16]; SK-MEL-2, read-out: LC50)?
**A.** The CC50 was 339 nM.

**Q.** And the IC50 ([17]; Homo sapiens, PC3, 1 hour exposure)?
**A.** Its IC50 is 350 nM.

**Q.** What about the IC50 ([17]; Homo sapiens, PC3, Continuous exposure) of the same molecule?
**A.** Its IC50 is 50 nM.

**Q.** What about the GI50 ([18]; Homo sapiens, IGROV-1, IGROV1) of the same molecule?
**A.** Its GI50 is 62.1 nM.

**Q.** And the GI50 ([19]; K562)?
**A.** Its GI50 is 315 nM.

**Q.** What about the CC50 ([19]; K562, read-out: LC50) of the same molecule?
**A.** Its CC50 is greater than 50000 nM.

**Q.** What about the “Percent Growth” value ([20]; HL-60 (TB), Log10 Concentration −4.3) of the same molecule?
**A.** Its value is 3%.

**Q.** And the “Percent Growth” value ([20]; HL-60 (TB), Log10 Concentration −5.3)?
**A.** Its value is 9%.

**Q.** What about the CC50 ([20]; Homo sapiens, HL-60, read-out: LC50) of the same molecule?
**A.** Its CC50 is greater than 50000 nM.

**Q.** What about the GI50 ([20]; Homo sapiens, HL-60 (TB)) of the same molecule?
**A.** The GI50 was 60.4 nM.

**Q.** And the GI50 ([21]; SNB-75)?
**A.** The GI50 was 62.8 nM.

**Q.** What about the CC50 ([21]; SNB-75, read-out: LC50) of the same molecule?
**A.** Its CC50 is 711 nM.

**Q.** And the GI50 ([22]; PC-3)?
**A.** Its GI50 is 61.7 nM.

**Q.** And the CC50 ([22]; PC-3, read-out: LC50)?
**A.** Its CC50 is 10500 nM.

**Q.** What about the TGI ([23]; HOP-92) of the same molecule?
**A.** Its TGI is 2.57E−07 Molar.

**Q.** What about the GI50 ([24]; MOLT-4) of the same molecule?
**A.** Its GI50 is 10.5 nM.

**Q.** What about the CC50 ([24]; MOLT-4, read-out: LC50) of the same molecule?
**A.** Its CC50 is greater than 50000 nM.

**Q.** And the GI50 ([25]; RXF 393)?
**A.** The GI50 was 74.7 nM.

**Q.** What about the CC50 ([25]; RXF 393, read-out: LC50) of the same molecule?
**A.** The CC50 was 21500 nM.

**Q.** What does the source list for “4-(2-Chloroethyl)-3-[5-(5-benzofuran-2-carboxamido)indole-2-carboxamido]phenol [Compound 1]”?
**A.** GI50 [26]: 2280 nM; TGI [26]: 5.80E-06 Molar; GI50 [27]: 2880 nM; TGI [27]: 9.59E-06 Molar; GI50 [28]: 1120 nM; TGI [28]: 6.16E-06 Molar; GI50 [29]: 1780 nM; TGI [29]: 4.41E-06 Molar; GI50 [7]: 852 nM; TGI [7]: 8.12E-06 Molar; GI50 [30]: 2830 nM; TGI [30]: 9.60E-06 Molar; GI50 [31]: 1860 nM; TGI [31]: 5.59E-06 Molar; GI50 [32]: 1320 nM; TGI [32]: 3.28E-06 Molar; GI50 ([13]; MCF7/ADR-RES): 1650 nM; TGI ([13]; MCF7/ADR-RES): 3.79E-06 Molar; Percent Growth ([13]; MCF7/ADR-RES, Log10 Concentration (Molar) −4.0): −55%; Percent Growth ([13]; MCF7/ADR-RES, Log10 Concentration (Molar) −7.0): 97%; GI50 [33]: 3530 nM; TGI [33]: 1.38E-05 Molar; GI50 [34]: 1530 nM; TGI [34]: 5.55E-06 Molar; GI50 [35]: 1970 nM; TGI [35]: 3.49E-06 Molar; IC50 ([17]; PC3, Continuous exposure): 3000 nM; GI50 [36]: 2410 nM; TGI [36]: 1.23E-05 Molar; GI50 [37]: 3600 nM; TGI [37]: 2.05E-05 Molar; GI50 [18]: 1500 nM; TGI [18]: 3.41E-06 Molar; GI50 [38]: 1880 nM; TGI [38]: 3.40E-06 Molar; GI50 [23]: 2620 nM
